These are literature values, as cited in patent US12436146B2, “Cell-based assay for quantifying the potency and efficacy of cannabinoids and/or terpenoids, and methods of use thereof” (priority 2017, dated 2025).

A value given as a limit tells only on which side of the number the result lay.

In series [1] the target is T1, CB1 (Homo sapiens, UniProt P21554).
Series [2] has as its target T1, CB1. The conditions noted are these: read-out: CB1 affinity (Ki).
Series [3] has as its target T2, CB2 (Homo sapiens, UniProt P34972). The conditions noted are these: read-out: CB2 affinity (Ki).
Series [4] deals with T2, CB2.

T2 sequence (P34972 whole entry): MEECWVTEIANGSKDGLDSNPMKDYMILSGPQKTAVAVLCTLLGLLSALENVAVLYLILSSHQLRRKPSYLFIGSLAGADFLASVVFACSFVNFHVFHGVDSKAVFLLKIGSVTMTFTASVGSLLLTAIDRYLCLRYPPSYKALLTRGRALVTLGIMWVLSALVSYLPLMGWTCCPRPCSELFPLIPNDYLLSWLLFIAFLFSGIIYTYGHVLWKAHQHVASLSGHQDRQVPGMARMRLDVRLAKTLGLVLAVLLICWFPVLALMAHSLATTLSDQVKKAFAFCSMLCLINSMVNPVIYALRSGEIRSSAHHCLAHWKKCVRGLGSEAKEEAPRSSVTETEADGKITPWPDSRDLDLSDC
T1 sequence (P21554 whole entry): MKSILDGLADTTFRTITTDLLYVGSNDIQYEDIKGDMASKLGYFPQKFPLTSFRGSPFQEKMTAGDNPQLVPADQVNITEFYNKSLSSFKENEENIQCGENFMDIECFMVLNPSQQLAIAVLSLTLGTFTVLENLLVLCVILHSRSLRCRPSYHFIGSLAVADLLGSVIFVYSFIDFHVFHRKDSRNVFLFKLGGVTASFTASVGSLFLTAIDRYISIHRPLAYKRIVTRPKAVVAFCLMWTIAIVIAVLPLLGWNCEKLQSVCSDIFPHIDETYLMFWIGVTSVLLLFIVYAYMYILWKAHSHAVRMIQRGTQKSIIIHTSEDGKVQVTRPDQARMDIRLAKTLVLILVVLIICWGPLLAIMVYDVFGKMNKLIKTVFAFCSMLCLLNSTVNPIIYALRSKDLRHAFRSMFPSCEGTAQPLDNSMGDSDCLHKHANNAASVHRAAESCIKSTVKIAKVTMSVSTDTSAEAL

For `CCCCC/C=C\C/C=C\C/C=C\C/C=C\CCCC(=O)OC(CO)CO` [2-Arachidonoylglycerol], at CB1 [1], the “Efficacy towards CB1” value is “Full agonist”.
For orientation: Ki means the dissociation constant of the complex between target and ligand, obtained from inhibition or displacement. For `CCCCC/C=C\C/C=C\C/C=C\C/C=C\CCCCOC(CO)CO` [2-Arachidonyl glyceryl ether], the inhibitory constant (Ki) at CB1 [2] is 21 nM; on CB2 [3], 480 nM. Moreover, the “Efficacy towards CB1” value at CB1 [1] is “Full agonist”. The “Efficacy towards CB2” value at CB2 [4] is “Full agonist”.
On to `Cc1c(C(=O)c2cccc3ccccc23)c2ccc([N+](=O)[O-])cc2n1CC1CCCCN1C` (stereo not shown) [AM-1221], for which the Ki was 52.3 nM on CB1 [2] and 0.28 nM on CB2 [3]. The “Efficacy towards CB1” value on CB1 [1] is given as “Agonist”. The “Efficacy towards CB2” value at CB2 [4] is listed as “Agonist”.
Regarding `O=C(c1cccc2ccccc12)c1cn(CCCCCF)c2cc([N+](=O)[O-])ccc12` [AM-1235], the Ki was 1.5 nM on CB1 [2] and 20.4 nM on CB2 [3]. Further, at CB1 [1], the “Efficacy towards CB1” value is reported as “Agonist”. The “Efficacy towards CB2” value at CB2 [4] is on record as “Agonist”.
`N#CCCCCn1cc(C(=O)c2cccc3ccccc23)c2ccccc21` [AM-2232]: the Ki was 0.28 nM at CB1 [2] and 1.48 nM on CB2 [3]. Moreover, the “Efficacy towards CB1” value on CB1 [1] is on record as “Agonist”. For the same compound, the “Efficacy towards CB2” value at CB2 [4] is given as “Agonist”.
On to `O=C(O[C@@H]1Cc2c(O)cc(O)cc2O[C@@H]1c1cc(O)c(O)c(O)c1)c1cc(O)c(O)c(O)c1` [EGCG], for which the values for the Ki at CB1 [2] and on CB2 [3] were 33600 nM and above 50000 nM, respectively. Further, the “Efficacy towards CB1” value on CB1 [1] is “Agonist”.
In the case of `CCCCCn1c(C)c(C(=O)c2cccc3ccccc23)c2ccccc21` [JWH-007], the Ki at CB1 [2] was 9 nM; on CB2 [3] it was 2.94 nM. The “Efficacy towards CB1” value on CB1 [1] was “Agonist”. In addition, on CB2 [4], the “Efficacy towards CB2” value is listed as “Agonist”.
For `CCCCCn1cc(C(=O)c2cccc3ccccc23)c2ccccc21` [JWH-018], the Ki on CB1 [2] was 9 ± 5 nM; on CB2 [3], 2.94 ± 2.65 nM. The “Efficacy towards CB1” value on CB1 [1] was “Full agonist”. The “Efficacy towards CB2” value on CB2 [4] is “Full agonist”.
As to `CCCCC/C=C\C/C=C\C/C=C\C/C=C\CCCC(=O)NCCc1ccc(O)c(O)c1` [N-Arachidonoyl dopamine], on CB1 [1], the “Efficacy towards CB1” value is on record as “Agonist”.
Turning to `CCCCCn1cc(C(=O)C2C(C)(C)C2(C)C)c2ccccc21` [UR-144], the Ki at CB1 [2] is 150 nM; at CB2 [3], 1.8 nM. Further, on CB1 [1], the “Efficacy towards CB1” value is “Full agonist”. Besides, the “Efficacy towards CB2” value at CB2 [4] is reported as “Full agonist”.
For `COc1ccc(/C=C/c2cc(OC)cc(=O)o2)cc1` [Yangonin], the inhibitory constant (Ki) at CB2 [3] is above 10000 nM.
